The source of these data is patent US20190070170A1, “METHOD OF S[…]-1” (Macau University of Science and Technology, priority 2017, published 2019).

Molecules are shown by their SMILES.

For one assay, the system named is COX-2. The experiment in a line: COX-2 protein in microsomes of inflamed paw of carrageenan-induced rats (western blotting). The note with it: SIN or DEX pretreatment i.p. The format is in vivo, SD rats. The method, then: The model of carrageenan-induced paw edema was performed with SD rats (150-200 g). The carrageenan-induced paw edema was performed in SD rats (150-200 g) by subcutaneously injection λ-carrageenan as described in Liu J. et al., Pharmacological research 2016, 111 and Luo P. et al., J. Pharmacol. Exp. Ther. 2010. Briefly, rats were fasted for 12 h before experiment and intraperitoneal injection was performed with three different doses (25, 50 and 100 mg/kg) of SIN, or DEX (reference drug, 2 mg/kg) or 0.9% saline (Vehicle and Normal group rats), at 2 h prior to the induction of paw edema. […] Paw volumes (ml) of right hind foot of each rat were measured using a plethysmometer (type 7150; UGO Basile, Comerio, Italy) at 0 h (before carrageenan injection) and then again at 1, 2, 3 and 4 h after the injection of carrageenan or saline. The percentage of paw edema of the right hind paws of all groups were calculated at different time points by the following equation: […]
Whole-cell and nuclear proteins were obtained using RIPA lysis buffer (CST, Boston, Mass., USA) and Nuclear and Cytoplasmic Extraction Reagents kit from Thermo Scientific (Asheville, N.C., USA), respectively. […] The levels of protein expression were measured using Odyssey v3.0 software from Li-COR (Lincoln, Nebr., USA).

For a further assay, the target named is T1, NF-κB (mPGES-1 promoter) (Rattus norvegicus, UniProt Q7TQN4).
T1 construct: Peritoneal macrophages of SD rats were isolated; endogenous in cells; host or cells: primary peritoneal macrophages of SD rats
The experiment in a line: ChIP assay: NF-κB DNA binding to mPGES-1 promoter in LPS-stimulated rat peritoneal macrophages. The format is cell-based. To be noted: 640 μM SIN 1 h, 1 μg/ml LPS 30 min. The method, then:
Rat peritoneal macrophages were pretreated with 640 μM SIN (1 h) and stimulated with 1 μg/ml LPS (30 min) before fixation at room temperature for 10 min with 1% formaldehyde. Fixation was terminated by adding glycine (to 0.125 M) with an additional incubation of 5 min, then the cells were washed twice with ice-cold PBS and harvested by scraping and centrifugation (1500 rpm for 10 min at 4° C.). Cell lysis was performed using ChIP kit from abcam (Cambridge, UK) according to the manufacturer's instructions. Briefly, cell pellets were resuspended in 1 ml Buffer B by pipetting up and down several times in a microcentrifuge tube and incubated at room temperature for 10 min. After centrifugation at 5000 rpm, the pellet was collected and resuspended in ice cold Buffer C and incubated on ice for 10 min, followed by centrifugation (5,000 rpm for 10 min at 4° C.). The pellet was mixed with 100 μl Buffer D containing protease inhibitors, incubated on ice for 10 min and sonicated for 30 cycles in a Bioruptor UCD-300 sonicator (power on high, 30 s on, 30 s off per cycle), yielding DNA fragments of 150-200 bps (the size of sonicated chromatin was checked through running 2% agarose gel). Beads were blocked overnight in PBS with 0.5% BSA and then added to the samples. […]

T1 sequence (Q7TQN4 whole entry): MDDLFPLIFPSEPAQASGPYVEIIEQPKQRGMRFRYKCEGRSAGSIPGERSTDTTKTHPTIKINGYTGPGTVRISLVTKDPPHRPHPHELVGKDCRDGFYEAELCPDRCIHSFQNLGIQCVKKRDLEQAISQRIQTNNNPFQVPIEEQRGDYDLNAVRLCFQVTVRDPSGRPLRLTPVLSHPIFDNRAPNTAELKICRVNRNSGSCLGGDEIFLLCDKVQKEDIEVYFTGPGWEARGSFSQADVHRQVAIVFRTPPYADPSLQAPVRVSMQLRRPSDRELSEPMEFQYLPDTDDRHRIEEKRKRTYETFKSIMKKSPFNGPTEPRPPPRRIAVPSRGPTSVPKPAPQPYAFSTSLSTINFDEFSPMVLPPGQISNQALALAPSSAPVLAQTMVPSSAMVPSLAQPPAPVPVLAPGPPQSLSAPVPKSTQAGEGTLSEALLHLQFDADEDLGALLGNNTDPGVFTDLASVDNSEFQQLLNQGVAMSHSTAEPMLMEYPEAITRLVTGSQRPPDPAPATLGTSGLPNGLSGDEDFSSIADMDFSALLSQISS

`COC1=C[C@@H]2[C@@H]3Cc4ccc(OC)c(O)c4[C@]2(CCN3C)CC1=O` [SIN, sinomenine]: the “COX-2 level in inflamed paw” value with COX-2 was “did not produce observable effects”. The “DNA binding of NF-κB to the promoter of mPGES-1” value at NF-κB (mPGES-1 promoter) was “selectively inhibited”.
